{"source": "ChEMBL document CHEMBL5465560", "about": "“Selectivity Literature for EUbOPEN Chemogenomic Library” (2024)", "key": {"[1]": {"biological_target": "Ribosomal protein S6 kinase alpha-2 (Homo sapiens) (UniProt Q15349)", "sequence (Q15349 whole entry)": "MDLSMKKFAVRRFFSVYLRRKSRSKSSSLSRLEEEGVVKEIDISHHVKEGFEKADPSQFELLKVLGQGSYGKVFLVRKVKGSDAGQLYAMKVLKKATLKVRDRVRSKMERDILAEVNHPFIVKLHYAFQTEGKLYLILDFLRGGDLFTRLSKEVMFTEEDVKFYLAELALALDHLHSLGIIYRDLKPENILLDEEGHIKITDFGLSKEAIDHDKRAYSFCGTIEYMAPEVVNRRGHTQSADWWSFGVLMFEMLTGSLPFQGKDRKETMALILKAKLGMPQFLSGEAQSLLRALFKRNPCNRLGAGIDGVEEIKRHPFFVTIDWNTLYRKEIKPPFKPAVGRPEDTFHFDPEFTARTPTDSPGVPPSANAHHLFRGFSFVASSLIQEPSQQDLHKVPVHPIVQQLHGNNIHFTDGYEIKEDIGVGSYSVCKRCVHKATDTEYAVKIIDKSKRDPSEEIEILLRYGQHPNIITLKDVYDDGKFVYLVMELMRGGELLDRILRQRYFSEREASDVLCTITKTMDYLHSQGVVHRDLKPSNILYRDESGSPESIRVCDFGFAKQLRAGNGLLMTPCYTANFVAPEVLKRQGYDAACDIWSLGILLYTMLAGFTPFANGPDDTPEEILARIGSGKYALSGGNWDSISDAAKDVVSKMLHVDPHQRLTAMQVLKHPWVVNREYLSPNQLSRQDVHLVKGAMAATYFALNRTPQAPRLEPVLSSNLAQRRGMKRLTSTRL", "assay": "Selectivity interaction (ActivX KiNativ screen (kinase selectivity in THP-1 cell lysates)) EUB0000639a RPS6KA2", "type": "subcellular", "details": "lysate, at 0.01 µM"}, "[2]": {"biological_target": "Serine/threonine-protein kinase MRCK gamma (Homo sapiens) (UniProt Q6DT37)", "sequence (Q6DT37 whole entry)": "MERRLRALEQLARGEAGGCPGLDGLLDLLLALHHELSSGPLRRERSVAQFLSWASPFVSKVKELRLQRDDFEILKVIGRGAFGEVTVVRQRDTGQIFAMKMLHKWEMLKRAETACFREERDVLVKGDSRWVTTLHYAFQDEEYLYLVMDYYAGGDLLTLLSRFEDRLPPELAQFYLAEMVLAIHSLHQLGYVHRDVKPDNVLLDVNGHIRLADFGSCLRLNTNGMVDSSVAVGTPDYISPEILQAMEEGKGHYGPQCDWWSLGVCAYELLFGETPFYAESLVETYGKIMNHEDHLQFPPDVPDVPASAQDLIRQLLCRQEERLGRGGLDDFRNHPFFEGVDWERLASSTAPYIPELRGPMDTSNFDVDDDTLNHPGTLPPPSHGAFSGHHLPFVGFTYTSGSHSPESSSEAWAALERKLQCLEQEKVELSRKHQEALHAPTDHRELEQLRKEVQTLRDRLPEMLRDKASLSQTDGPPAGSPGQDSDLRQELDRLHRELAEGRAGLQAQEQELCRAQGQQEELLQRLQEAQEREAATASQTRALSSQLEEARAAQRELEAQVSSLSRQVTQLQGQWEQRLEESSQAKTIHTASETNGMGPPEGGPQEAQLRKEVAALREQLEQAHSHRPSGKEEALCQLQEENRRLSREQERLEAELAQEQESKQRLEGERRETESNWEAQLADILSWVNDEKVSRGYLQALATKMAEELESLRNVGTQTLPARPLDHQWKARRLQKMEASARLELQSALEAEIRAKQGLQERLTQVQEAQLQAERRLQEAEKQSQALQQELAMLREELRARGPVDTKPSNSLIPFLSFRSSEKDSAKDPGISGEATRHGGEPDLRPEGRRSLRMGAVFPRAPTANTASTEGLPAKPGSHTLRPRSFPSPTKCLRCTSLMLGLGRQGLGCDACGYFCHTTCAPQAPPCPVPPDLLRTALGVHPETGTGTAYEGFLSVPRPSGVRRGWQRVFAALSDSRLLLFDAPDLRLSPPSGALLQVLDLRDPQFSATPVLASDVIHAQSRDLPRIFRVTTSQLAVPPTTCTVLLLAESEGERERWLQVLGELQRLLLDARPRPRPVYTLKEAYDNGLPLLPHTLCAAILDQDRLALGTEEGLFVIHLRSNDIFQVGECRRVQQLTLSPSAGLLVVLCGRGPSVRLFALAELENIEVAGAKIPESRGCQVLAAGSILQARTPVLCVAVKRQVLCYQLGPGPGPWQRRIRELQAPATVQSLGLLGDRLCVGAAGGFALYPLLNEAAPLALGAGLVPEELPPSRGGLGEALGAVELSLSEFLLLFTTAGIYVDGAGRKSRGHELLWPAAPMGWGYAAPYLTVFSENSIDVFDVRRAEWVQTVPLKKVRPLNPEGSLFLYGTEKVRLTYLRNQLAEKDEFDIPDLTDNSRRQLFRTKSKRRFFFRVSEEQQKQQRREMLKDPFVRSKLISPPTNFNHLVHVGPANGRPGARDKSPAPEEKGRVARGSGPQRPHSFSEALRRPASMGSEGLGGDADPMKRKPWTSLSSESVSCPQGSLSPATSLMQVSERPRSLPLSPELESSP", "assay": "Selectivity interaction (KinomeScan (DiscoverX)) EUB0001049a CDC42BPG", "details": "at 1 µM"}, "[3]": {"biological_target": "T1, Ephrin type-A receptor 1 (Homo sapiens) (UniProt P21709)", "T1 sequence (whole entry)": "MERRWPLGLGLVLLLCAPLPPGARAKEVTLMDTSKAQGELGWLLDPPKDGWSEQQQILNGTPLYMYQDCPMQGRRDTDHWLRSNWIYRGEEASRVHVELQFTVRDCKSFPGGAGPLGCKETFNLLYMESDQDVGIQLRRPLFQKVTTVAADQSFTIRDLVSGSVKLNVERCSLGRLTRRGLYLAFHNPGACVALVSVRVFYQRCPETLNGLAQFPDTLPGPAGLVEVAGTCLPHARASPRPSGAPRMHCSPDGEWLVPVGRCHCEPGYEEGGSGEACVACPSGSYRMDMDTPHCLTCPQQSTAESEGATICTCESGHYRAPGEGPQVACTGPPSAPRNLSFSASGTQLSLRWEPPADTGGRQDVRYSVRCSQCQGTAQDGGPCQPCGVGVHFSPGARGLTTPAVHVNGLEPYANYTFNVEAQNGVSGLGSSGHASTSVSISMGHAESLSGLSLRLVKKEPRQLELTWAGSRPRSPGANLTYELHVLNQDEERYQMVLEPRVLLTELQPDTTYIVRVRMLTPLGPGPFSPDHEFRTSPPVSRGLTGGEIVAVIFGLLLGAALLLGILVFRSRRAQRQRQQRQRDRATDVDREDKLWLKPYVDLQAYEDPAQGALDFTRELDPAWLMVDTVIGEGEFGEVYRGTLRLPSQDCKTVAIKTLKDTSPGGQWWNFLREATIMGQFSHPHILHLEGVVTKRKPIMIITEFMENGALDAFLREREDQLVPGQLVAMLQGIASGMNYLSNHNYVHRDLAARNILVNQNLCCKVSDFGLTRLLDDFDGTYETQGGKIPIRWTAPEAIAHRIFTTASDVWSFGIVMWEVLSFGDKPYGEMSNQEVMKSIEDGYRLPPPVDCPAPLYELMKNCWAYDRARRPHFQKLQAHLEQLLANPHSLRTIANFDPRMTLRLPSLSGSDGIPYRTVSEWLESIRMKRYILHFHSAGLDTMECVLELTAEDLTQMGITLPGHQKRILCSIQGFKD", "assay": "Selectivity interaction (KinomeScan (DiscoverX)) EUB0001049a EPHA1", "details": "at 1 µM"}, "[4]": {"biological_target": "Ribosomal protein S6 kinase alpha-6 (Homo sapiens, UniProt Q9UK32)", "sequence (Q9UK32 whole entry)": "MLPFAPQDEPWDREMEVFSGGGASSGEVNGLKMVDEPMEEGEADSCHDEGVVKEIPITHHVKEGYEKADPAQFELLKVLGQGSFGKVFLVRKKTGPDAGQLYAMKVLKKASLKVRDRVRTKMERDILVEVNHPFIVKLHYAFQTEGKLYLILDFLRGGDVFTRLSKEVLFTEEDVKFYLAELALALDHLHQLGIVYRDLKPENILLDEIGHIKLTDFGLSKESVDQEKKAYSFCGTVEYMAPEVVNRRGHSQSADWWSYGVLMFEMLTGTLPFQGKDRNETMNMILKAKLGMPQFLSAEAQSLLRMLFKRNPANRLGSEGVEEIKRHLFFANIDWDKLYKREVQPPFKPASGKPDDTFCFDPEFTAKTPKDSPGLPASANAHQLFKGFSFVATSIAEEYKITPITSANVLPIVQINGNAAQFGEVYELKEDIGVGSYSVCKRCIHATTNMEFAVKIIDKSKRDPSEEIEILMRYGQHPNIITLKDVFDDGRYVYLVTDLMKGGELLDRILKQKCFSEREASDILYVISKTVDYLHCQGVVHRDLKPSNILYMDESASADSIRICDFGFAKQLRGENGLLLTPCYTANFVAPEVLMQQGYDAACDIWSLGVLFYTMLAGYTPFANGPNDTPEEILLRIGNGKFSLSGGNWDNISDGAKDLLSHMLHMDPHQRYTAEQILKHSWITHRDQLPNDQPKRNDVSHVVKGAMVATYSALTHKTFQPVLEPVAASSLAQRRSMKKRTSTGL", "assay": "Selectivity interaction (Ambit KINOMEscan and KiNATiv profiling in Jurkat cells) EUB0000090b RPS6KA6", "type": "cell-based", "details": "at 1 µM"}, "[5]": {"biological_target": "T2, Tyrosine-protein kinase Tec (Homo sapiens) (UniProt P42680)", "T2 sequence (whole entry)": "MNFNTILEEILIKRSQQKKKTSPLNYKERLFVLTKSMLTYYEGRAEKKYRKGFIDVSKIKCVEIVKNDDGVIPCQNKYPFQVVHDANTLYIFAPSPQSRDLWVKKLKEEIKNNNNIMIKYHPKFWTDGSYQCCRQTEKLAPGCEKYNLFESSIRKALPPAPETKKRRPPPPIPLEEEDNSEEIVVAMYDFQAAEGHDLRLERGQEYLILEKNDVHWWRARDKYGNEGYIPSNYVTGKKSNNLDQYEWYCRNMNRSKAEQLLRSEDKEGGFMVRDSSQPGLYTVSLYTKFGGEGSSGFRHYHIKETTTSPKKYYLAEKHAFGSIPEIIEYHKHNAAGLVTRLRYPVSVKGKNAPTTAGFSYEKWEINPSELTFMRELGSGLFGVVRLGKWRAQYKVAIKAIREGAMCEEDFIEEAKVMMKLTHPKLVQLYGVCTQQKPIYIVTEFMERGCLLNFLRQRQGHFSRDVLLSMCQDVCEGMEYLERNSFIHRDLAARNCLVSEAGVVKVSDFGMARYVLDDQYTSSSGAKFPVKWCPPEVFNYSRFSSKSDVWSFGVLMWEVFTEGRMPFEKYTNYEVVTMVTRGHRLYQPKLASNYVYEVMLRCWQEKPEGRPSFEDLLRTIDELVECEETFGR", "assay": "Selectivity interaction (Ambit KINOMEscan and KiNATiv profiling in Jurkat cells) EUB0000090b TEC", "type": "cell-based", "details": "at 1 µM"}, "[6]": {"biological_target": "Receptor-interacting serine/threonine-protein kinase 2 (Homo sapiens, UniProt O43353)", "sequence (O43353 whole entry)": "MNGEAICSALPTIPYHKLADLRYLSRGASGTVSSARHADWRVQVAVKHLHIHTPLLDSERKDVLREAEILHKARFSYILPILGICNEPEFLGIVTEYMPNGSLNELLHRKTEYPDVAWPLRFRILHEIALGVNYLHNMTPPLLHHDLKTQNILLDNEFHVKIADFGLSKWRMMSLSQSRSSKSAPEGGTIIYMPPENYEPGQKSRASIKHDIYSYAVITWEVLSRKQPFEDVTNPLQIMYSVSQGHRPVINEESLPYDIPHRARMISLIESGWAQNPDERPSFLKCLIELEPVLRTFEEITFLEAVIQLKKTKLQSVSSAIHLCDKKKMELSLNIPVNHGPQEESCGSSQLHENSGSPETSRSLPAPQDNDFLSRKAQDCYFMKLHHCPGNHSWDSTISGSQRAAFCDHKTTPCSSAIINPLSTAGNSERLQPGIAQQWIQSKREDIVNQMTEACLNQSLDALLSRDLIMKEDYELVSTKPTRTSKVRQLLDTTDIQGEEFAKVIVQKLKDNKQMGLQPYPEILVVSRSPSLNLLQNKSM", "assay": "Selectivity interaction (Ambit KINOMEscan and KiNATiv profiling in Jurkat cells) EUB0000090b RIPK2", "type": "cell-based", "details": "at 1 µM"}, "[7]": {"biological_target": "Serine/threonine-protein kinase PLK1 (Homo sapiens, UniProt P53350)", "sequence (P53350 whole entry)": "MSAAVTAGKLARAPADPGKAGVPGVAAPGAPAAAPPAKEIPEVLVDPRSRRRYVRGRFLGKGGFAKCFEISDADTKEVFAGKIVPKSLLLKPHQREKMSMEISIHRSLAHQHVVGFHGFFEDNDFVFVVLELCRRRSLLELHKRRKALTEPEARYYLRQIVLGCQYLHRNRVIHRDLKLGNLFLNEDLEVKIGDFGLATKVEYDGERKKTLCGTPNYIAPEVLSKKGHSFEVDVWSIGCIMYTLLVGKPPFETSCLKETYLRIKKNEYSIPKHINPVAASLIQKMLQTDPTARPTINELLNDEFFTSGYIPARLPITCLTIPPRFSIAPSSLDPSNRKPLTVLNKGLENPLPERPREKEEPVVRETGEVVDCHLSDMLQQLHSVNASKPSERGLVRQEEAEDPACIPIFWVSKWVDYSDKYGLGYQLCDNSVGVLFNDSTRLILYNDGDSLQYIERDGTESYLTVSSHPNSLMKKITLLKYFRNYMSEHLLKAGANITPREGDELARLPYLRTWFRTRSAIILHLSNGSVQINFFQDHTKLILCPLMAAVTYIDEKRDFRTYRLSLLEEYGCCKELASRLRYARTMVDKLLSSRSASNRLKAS", "assay": "Selectivity interaction (KinomeScan (DiscoverX)) EUB0000045b PLK1"}, "[8]": {"biological_target": "T3, Mitogen-activated protein kinase kinase kinase kinase 2 (Homo sapiens) (UniProt Q12851)", "T3 sequence (whole entry)": "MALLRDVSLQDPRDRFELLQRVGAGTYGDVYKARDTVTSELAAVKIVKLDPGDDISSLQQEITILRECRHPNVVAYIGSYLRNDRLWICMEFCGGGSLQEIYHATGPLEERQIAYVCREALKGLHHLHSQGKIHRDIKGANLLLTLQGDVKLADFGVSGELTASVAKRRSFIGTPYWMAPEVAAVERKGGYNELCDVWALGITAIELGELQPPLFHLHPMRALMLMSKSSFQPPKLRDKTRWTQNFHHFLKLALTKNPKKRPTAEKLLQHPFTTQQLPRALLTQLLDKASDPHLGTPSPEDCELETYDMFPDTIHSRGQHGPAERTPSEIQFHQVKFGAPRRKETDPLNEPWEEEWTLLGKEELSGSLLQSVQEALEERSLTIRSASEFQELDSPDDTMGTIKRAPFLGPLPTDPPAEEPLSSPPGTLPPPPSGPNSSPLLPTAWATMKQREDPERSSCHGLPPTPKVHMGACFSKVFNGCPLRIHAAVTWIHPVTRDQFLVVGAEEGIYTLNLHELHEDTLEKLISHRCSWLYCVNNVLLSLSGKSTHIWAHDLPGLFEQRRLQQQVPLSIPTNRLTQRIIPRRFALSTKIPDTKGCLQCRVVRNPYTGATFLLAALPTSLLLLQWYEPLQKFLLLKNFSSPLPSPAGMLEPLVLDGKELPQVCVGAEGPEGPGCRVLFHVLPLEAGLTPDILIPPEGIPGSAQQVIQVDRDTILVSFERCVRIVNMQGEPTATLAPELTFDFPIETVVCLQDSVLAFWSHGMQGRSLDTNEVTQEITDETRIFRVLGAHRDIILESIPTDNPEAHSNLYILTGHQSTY", "assay": "Selectivity interaction (Kinase panel (KiNativ target engagement assay in Jurkat cells)) EUB0001635a MAP4K2", "type": "cell-based", "details": "Selectivity number of off-targets 0.0, Selectivity number of targets 233.0, Source Knowledge https://www.sciencedirect.com/science/article/pii/S2451945619300674?via%3Dihub, at 1 µM"}}, "data": [{"smiles": "CC[C@@H]1[C@H](F)C(=O)N[C@@H]1COc1nccc2cc(C(N)=O)c(OC)cc12", "note": "[ZIMLOVISERTIB]", "values": [{"measurement": "% of inhibition", "setting": "[1]", "result": -10.4, "unit": "%"}]}, {"smiles": "COc1cc(Nc2nc(C)cc(-c3cnn4nc(OC)ccc34)n2)cc(C(F)(F)F)c1", "values": [{"measurement": "% of control", "setting": "[2]", "result": 89, "unit": "%"}, {"measurement": "% of control", "setting": "[3]", "result": 93, "unit": "%"}]}, {"smiles": "CN(C)C/C=C/C(=O)Nc1ccc(C(=O)N2CCCC(Nc3ncc(Cl)c(-c4c[nH]c5ccccc45)n3)C2)cc1", "note": "(centres undefined)", "values": [{"measurement": "% of control", "setting": "[4]", "result": 92, "unit": "%"}, {"measurement": "% of control", "setting": "[5]", "result": 99, "unit": "%"}, {"measurement": "% of control", "setting": "[6]", "result": 88, "unit": "%"}]}, {"smiles": "C=CC(=O)Nc1cc(-n2c(=O)ccc3cnc4ccc(-c5ccc(NS(C)(=O)=O)cc5)cc4c32)ccc1C", "values": [{"measurement": "% of control", "setting": "[7]; at 1 µM", "result": 100, "unit": "%"}, {"measurement": "% of control", "setting": "[7]; at 10 µM", "result": 100, "unit": "%"}]}, {"smiles": "C=CC(=O)Nc1ccc(C(=O)Nc2[nH]nc3c2CN(C(=O)N[C@H](CN(C)C)c2ccccc2)C3(C)C)cc1", "values": [{"measurement": "% of engagement", "setting": "[8]", "result": -6.1, "unit": "%"}]}]}
